Patent publication US20230039987A1, “GEL COMPOSITIONS, SYSTEMS, AND METHODS” (Boston Scientific Scimed, Inc., priority 2021, published 2023)

Tested on: NIH 3T3 fibroblasts
Conditions: read-out: IC50 (cytotoxicity); 24 hours, MTS
Description: In vitro cytotoxicity of the photoinitiator and the gel were tested using NIH 3T3 fibroblasts cultured in Dulbecco's Modified Eagle's Medium (DMEM) containing 10% fetal bovine serum and 1% penicillin-streptomycin. Cells were seeded in either 96 well plates or 12 well plates at a density of 2,500 cells/well or 25,000 cells/well, respectively, and allowed to adhere overnight. Photoinitiator solutions and the gel solution were sterile filtered using a 0.22 um filter prior to testing in vitro. The gel solution was then gelled within the biosafety cabinet using the 150 W halogen lamp and co-cultured with the cells utilizing a 3 μm pore size transwell insert. Cells were incubated with treatments for 24 hours and then viability was measured using an MTS (3-(4,5-dimethyltriazol-2-yl)-5-(3-carboxymethoxyphenyl)-2-(4-sulfophenyl)-2H-tratrazolium, inner salt) assay (CellTiter 96® AQueous One, Promega). Cell viabilities were normalized to control untreated cells.

## O=C(O)c1ccccc1-c1c2cc(Br)c(=O)c(Br)c-2oc2c(Br)c(O)c(Br)cc12 [photoinitiator, Eosin Y]
  IC50: ~223 µM
